system: circBRIP1 in HCT116 cells; experiment: DHX9 circBRIP1 cellular target engagement SYBR Green assay (qPCR); assay type: cell-based; conditions: Homo sapiens, HCT-116, circBRIP1, HCT116 cells; SyBr assay (marked ^+); read-out: DHX9 Cellular Target Engagement EC50

Structure (SMILES) | EC50
CC(=O)N1CC2(CC(n3cc(C(=O)Nc4cc(Cl)cc(NS(C)(=O)=O)c4)cn3)C2)C1 [Example 313] | > 10000 nM
CC1(C)CC(n2cc(C(=O)Nc3cc(Cl)cc(NS(C)(=O)=O)c3)cn2)CCN1 (stereo not drawn) [Example 315] | > 10000 nM
CS(=O)(=O)Nc1cc(Cl)cc(NC(=O)c2cnn(C3CCN(CC(F)(F)F)CC3)c2)c1 [Example 316] | 4920 nM
CC(=O)N1CCC(n2cc(C(=O)Nc3cc(Cl)cc(NS(C)(=O)=O)c3)cn2)CC1 [Example 317] | > 10000 nM
CS(=O)(=O)Nc1cc(Cl)cc(NC(=O)c2cnn(C3CC4(CC(N)C4)C3)c2)c1 (stereo not drawn) [Example 319] | > 10000 nM
Cc1cc(C(=O)Nc2cc(Cl)cc(NS(C)(=O)=O)c2)cn1-c1ncc(N2CCOCC2)cc1F [Example 320] | 96.1 nM
COc1cccc2sc(C(=O)Nc3cc(Cl)cc(NS(C)(=O)=O)c3)cc12 [Example 321] | 241 nM
Cc1cn2cc(C(=O)Nc3cc(Cl)cc(NS(C)(=O)=O)c3)cc2c(C)n1 [Example 322] | > 10000 nM
CS(=O)(=O)Nc1cc(Cl)cc(NC(=O)c2cc3c(C(F)(F)F)cccc3s2)c1 [Example 323] | > 10000 nM
CS(=O)(=O)Nc1cc(Cl)cc(NC(=O)c2cc3c(F)c(F)ccc3s2)c1 [Example 324] | 5900 nM
CS(=O)(=O)Nc1cc(Cl)cc(NC(=O)c2cc3c(F)ccc(F)c3s2)c1 [Example 325] | 6090 nM
CS(=O)(=O)Nc1cc(Cl)cc(NC(=O)c2cc3cc(C(F)(F)F)ccc3s2)c1 [Example 326] | > 10000 nM
COc1ccc2cc(C(=O)Nc3cc(Cl)cc(NS(C)(=O)=O)c3)sc2c1 [Example 327] | 3540 nM
Cc1cc(C)c2cc(C(=O)Nc3cc(Cl)cc(NS(C)(=O)=O)c3)cn2c1 [Example 328] | 2670 nM
Cc1cccn2cc(C(=O)Nc3cc(Cl)cc(NS(C)(=O)=O)c3)cc12 [Example 329] | 4980 nM
CS(=O)(=O)Nc1cc(Cl)cc(NC(=O)c2cc3cnccn3c2)c1 [Example 330] | 4870 nM
Cc1ccc2sc(C(=O)Nc3cc(Cl)cc(NS(C)(=O)=O)c3)cc2c1 [Example 331] | 3750 nM
CS(=O)(=O)Nc1cc(Cl)cc(NC(=O)c2cc3c(Cl)cccc3s2)c1 [Example 332] | 3340 nM
Cc1cccnc1-c1cc(C(=O)Nc2cc(F)cc(NS(C)(=O)=O)c2)sc1C [Example 333] | 421 nM
Cc1cccnc1-c1csc(C(=O)Nc2cc(F)cc(NS(C)(=O)=O)c2)c1 [Example 334] | 251 nM
CS(=O)(=O)Nc1cc(Cl)cc(NC(=O)c2cc(-c3ncc(F)cn3)cs2)c1 [Example 338] | 126 nM
CCS(=O)(=O)Nc1cc(Cl)cc(NC(=O)c2cc(-c3ncc(F)cn3)cs2)c1 [Example 343] | 189 nM
CCS(=O)(=O)Nc1cc(Cl)cc(NC(=O)c2cc(-c3ncc(F)cn3)c(C)s2)c1 [Example 344] | 153 nM
CS(=O)(=O)Nc1cc(Cl)cc(NC(=O)c2cc(-c3ncccc3CC(=O)N3CCC3)cs2)c1 [Example 382] | 640 nM
CS(=O)(=O)Nc1cc(Cl)cc(NC(=O)c2cc(-c3ncccc3CC(=O)N3CCCC3)cs2)c1 [Example 383] | 557 nM
CS(=O)(=O)Nc1cc(Cl)cc(NC(=O)c2cc(-c3ncccc3Cc3ncccn3)cs2)c1 [Example 384] | 122 nM
Cc1sc(C(=O)Nc2cc(Cl)cc(NS(C)(=O)=O)c2)cc1-c1ncccc1CC(=O)N(C)C [Example 385] | 1330 nM
CS(=O)(=O)Nc1cc(Cl)cc(NC(=O)c2cnn(-c3ncccc3-c3cncnc3)c2)c1 [Example 387] | > 10000 nM
CS(=O)(=O)Nc1cc(Cl)cc(NC(=O)c2cnn(-c3cnc(N4CCOCC4)cn3)c2)c1 [Example 388] | 6530 nM

same assay, conditions: Homo sapiens, HCT-116, circBRIP1, HCT116 cells; ^+ SyBr assay was used; read-out: DHX9 Cellular Target Engagement EC50

Structure (SMILES) | EC50
CS(=O)(=O)Nc1cc(Cl)cc(NC(=O)c2cnn(-c3ncccc3-c3cncc(F)c3)c2)c1 [Example 392] | 2800 nM
COc1cc(F)cnc1-n1cc(C(=O)Nc2cc(Cl)cc(NS(C)(=O)=O)c2)cc1C [Example 393] | 133 nM
CS(=O)(=O)Nc1cc(Cl)cc(NC(=O)c2cnn(-c3ncc(N4CCOCC4)cn3)c2)c1 [Example 394] | 4230 nM
Cc1cc(C(=O)Nc2cc(Cl)cc(NS(C)(=O)=O)c2)cn1-c1ncc(N2CCOCC2)cc1F [Example 412] | 96.1 nM
CS(=O)(=O)Nc1cc(Cl)cc(NC(=O)c2cnn(C3CCCC3OCc3ccccc3)c2)c1 (stereo not drawn) [Example 424] | 4110 nM
Cc1cc(C(=O)Nc2cc(Cl)cc(NS(C)(=O)=O)c2)cn1-c1ccc(C#N)cn1 [Example 425] | 193 nM
Cc1cc(C(=O)Nc2cc(Cl)cc(NS(C)(=O)=O)c2)cn1-c1ncc(C(F)(F)F)cn1 [Example 426] | 226 nM
CS(=O)(=O)Nc1cc(Cl)cc(NC(=O)c2cnn(-c3ncccc3Oc3cccc(F)c3)c2)c1 [Example 427] | 305 nM
CS(=O)(=O)Nc1cc(Cl)cc(NC(=O)c2cnn(-c3ccccc3COc3cncc(F)c3)c2)c1 [Example 428] | 201 nM
CN1CCN(c2csc(C(=O)Nc3cc(Cl)cc(NS(C)(=O)=O)c3)c2)C1=O [Example 431] | 447 nM
CS(=O)(=O)Nc1cc(Cl)cc(NC(=O)c2cc(N3CCOC3=O)cs2)c1 [Example 433] | 1410 nM
Cc1sc(C(=O)Nc2cc(Cl)cc(NS(C)(=O)=O)c2)cc1N1CCCC1=O [Example 434] | 2320 nM
COc1cnn(-c2csc(C(=O)Nc3cc(Cl)cc(NS(C)(=O)=O)c3)c2)c1 [Example 435] | 1150 nM
Cc1sc(C(=O)Nc2cc(Cl)cc(NS(C)(=O)=O)c2)cc1-n1cc(F)cn1 [Example 439] | 199 nM
CS(=O)(=O)Nc1cc(Cl)cc(NC(=O)c2cc(-n3cc(F)cn3)cs2)c1 [Example 440] | 370 nM
CS(=O)(=O)Nc1cc(Cl)cc(NC(=O)c2cc(-c3ncc(F)cn3)c(C3CC3)s2)c1 [Example 448] | 2730 nM
CCS(=O)(=O)Nc1cc(Cl)cc(NC(=O)c2cc(-c3ncc(F)cn3)c(C3CC3)s2)c1 [Example 449] | 860 nM
CS(=O)(=O)Nc1cc(Cl)cc(NC(=O)c2cc(C3CC3)n(-c3ncc(F)cn3)c2)c1 [Example 451] | 1050 nM
Cn1cc(C(=O)Nc2cc(Cl)cc(NS(C)(=O)=O)c2)cc1-c1ccc(C(F)(F)F)cn1 [Example 569] | 146 nM
Cn1cc(C(=O)Nc2cc(Cl)cc(NS(C)(=O)=O)c2)cc1-c1ccc(C#N)cn1 [Example 570] | 224 nM
Cn1cc(C(=O)Nc2cc(Cl)cc(NS(C)(=O)=O)c2)cc1-c1ccc(F)cn1 [Example 575] | 215 nM
Cn1cc(C(=O)Nc2cc(Cl)cc(NS(C)(=O)=O)c2)cc1-c1ccc(Cl)cn1 [Example 576] | 128 nM
Cn1cc(C(=O)Nc2cc(Cl)cc(NS(C)(=O)=O)c2)cc1-c1ncc(Cl)cn1 [Example 577] | 153 nM

Structure (SMILES) | EC50
Cc1cc(C(=O)Nc2cc(Cl)cc(NS(C)(=O)=O)c2)cn1-c1ncc(Cl)cn1 [Example 578] | 491 nM
Cn1cc(C(=O)Nc2cc(Cl)cc(NS(C)(=O)=O)c2)cc1-c1ncc(F)cc1-c1cncc(F)c1 [Example 604, N-(3-chloro-5-methanesulfonamidophenyl)-5-{5,5′-difluoro-[3,3′-bipyridin]-2-yl}-1-methylpyrrole-3-carboxamide] | 160 nM
Cc1sc(C(=O)Nc2cc(Cl)cc(NS(C)(=O)=O)c2)cc1-c1ncc(F)cc1-c1ccn(C)c(=O)c1 [Example 605] | 5330 nM
Cc1sc(C(=O)Nc2cc(Cl)cc(NS(C)(=O)=O)c2)cc1-c1ncc(F)cc1-c1ccc(=O)n(C)c1 [Example 606] | 1510 nM
Cc1sc(C(=O)Nc2cc(Cl)cc(NS(C)(=O)=O)c2)cc1-c1ncc(F)cc1-c1cncc(F)c1 [Example 607] | 126 nM
Cc1ncccc1-c1cc(F)cnc1-c1cc(C(=O)Nc2cc(Cl)cc(NS(C)(=O)=O)c2)sc1C [Example 608] | 422 nM
CS(=O)(=O)Nc1cc(Cl)cc(NC(=O)c2cc(C(=O)N3CC4(CNC4)C3)n(-c3ccccn3)c2)c1 [Example 643] | > 10000 nM
CS(=O)(=O)Nc1cc(Cl)cc(NC(=O)c2cc(C(=O)N3CCCCC3)n(-c3ccccn3)c2)c1 [Example 644] | 8720 nM
CC(C)(C)OC(=O)N1CC(n2cc(C(=O)Nc3cc(Cl)cc(NS(C)(=O)=O)c3)cc2-c2ncc(F)cn2)C1 [Example 645] | 1260 nM
CS(=O)(=O)Nc1cc(Cl)cc(NC(=O)c2cc(C(=O)N3CCN(CC(F)(F)F)CC3)n(-c3ccccn3)c2)c1 [Example 649] | 9930 nM
CC(C)(O)c1cc(C(=O)Nc2cc(Cl)cc(NS(C)(=O)=O)c2)cn1-c1ccccn1 [Example 650] | 859 nM
CS(=O)(=O)Nc1cc(Cl)cc(NC(=O)c2cc(C(=O)N3CCN(c4ccccc4)CC3)n(-c3ccccn3)c2)c1 [Example 654] | 5310 nM
Cn1cc(C(=O)Nc2cc(Cl)cc(NS(C)(=O)=O)c2)cc1-c1ncccc1Oc1cccnc1 [Example 655] | 4520 nM
Cc1cc(C(=O)Nc2cc(Cl)cc(NS(C)(=O)=O)c2)cn1-c1ncc(S(C)(=O)=O)cn1 [Example 656] | 239 nM
Cc1cc(C(=O)Nc2cc(Cl)cc(NS(C)(=O)=O)c2)cn1-c1ncc([S+](C)[O-])cn1 (stereo not drawn) [Example 657] | 817 nM
CSc1cnc(-n2cc(C(=O)Nc3cc(Cl)cc(NS(C)(=O)=O)c3)cc2C)nc1 [Example 658] | 425 nM
CN1CCN(c2csc(C(=O)Nc3cc(Cl)cc(NS(C)(=O)=O)c3)c2)CC1=O [Example 661] | > 10000 nM
CN1CCN(C(=O)c2cc(C(=O)Nc3cc(Cl)cc(NS(C)(=O)=O)c3)cn2-c2ccccn2)CC1 [Example 665] | 4990 nM
Cc1cc(C(=O)Nc2cc(Cl)cc(NS(C)(=O)=O)c2)cn1-c1ncc(OC2COC2)cn1 [Example 669] | 124 nM
Cc1cc(C(=O)Nc2cc(Cl)cc(NS(C)(=O)=O)c2)cn1-c1ccc(N(C)C2CCOC2)cn1 (stereo not drawn) [Example 674] | 28.9 nM
CS(=O)(=O)Nc1cc(Cl)cc(NC(=O)c2cnn(-c3ncccc3Oc3cccnc3)c2)c1 [Example 676] | 806 nM
COCc1cc(C(=O)Nc2cc(Cl)cc(NS(C)(=O)=O)c2)cn1-c1ncccc1F [Example 682] | 149 nM
Cc1sc(C(=O)Nc2cc(Cl)cc(NS(C)(=O)=O)c2)cc1N1C(=O)N(c2ccccn2)C(C)(C)C1=O [Example 685] | 769 nM

From patent US12162867B2, “Inhibitors of RNA helicase DHX9 and uses thereof” (ACCENT THERAPEUTICS, INC., priority 2022, dated 2024)
